# Laboratory results from patent US8278436B2, “Glycosylated warfarin analogs and uses thereof” (priority 2008, dated 2012).
# Like-named read-outs stand apart in the source and are kept apart here.
# Experiments:
# Assay type in all cases: cell-based
# [1] = tested on: HCT-15 human colorectal adenocarcinoma cells; assay: cell proliferation assay, HCT-15; details: Table 3 summary of most active compounds, IC50, read-out: HCT15 Colorectal
# Description: (§1) In this Example, the warfarin neoglycosides of the invention were screened for anti-tumor activity in cell proliferation assays using the following tumor cells lines: A549—human lung adenocarcinoma; H1299—human lung adenocarcinoma (p53 null); HCT-15—human colorectal adenocarcinoma; HT-29—human colorectal adenocarcinoma; MCF7—human breast adenocarcinoma; NCI-H460—human lung adenocarcinoma; SF-268—human CNS adenocarcinoma; and SKOV-3—human ovarian adenocarcinoma.
# (§2) All cell lines were maintained as previously reported (see Langenhan, J. M.; Peters, N. R.; Guzei, I. A.; Hoffmann, F. M.; Thorson, J. S. Proc. Natl. Acad. Sci. USA 2005, 102, 12305-12310, which is incorporated by reference herein). Cells were harvested using 0.25% trypsin and 0.1% EDTA and counted in a Cellometer Auto T4 cell counter (Nexcelom, Inc.) prior to dilution for assay plating. Cells were plated at a denity of 500 cells per well in 50 μL volumes in 384-well clear-bottom tissue culture plates (Corning-Costar, Inc.).
# (§3) Compounds were added from the 384-well compound stock plates at a 1:100 dilution using a Biomek FX liquid handler equipped with a 384-channel head (Beckman Coulter, Inc.). The plates were incubated for 7 days at 37° C. in a 5% CO2 atmosphere prior to performing the assays. Calcein AM (acetoxymethyl ester) reagent and EthD-1 (30 μL, 10 μM CAM and 100 μM EthD-1) was added and the cells were incubated for 30 min at 37° C. […] resulting from incubation with Calcein AM and EthD-1 was read using a Safire-2 microplate reader at the appropriate wavelengths. To lyse the cells, 15 μL of CellTiter-Glo reagent (Promega Corporation, Inc.) was added and the cells were incubated for 10 min at room temperature with gentle agitation. The luminescence of each plate was re-read to confirm the observed inhibition.
# (§4) IC50s for cell proliferation assays were determined for Calcein AM, the ratio of live/dead cells (Calcein AM/EthD-1), and CellTiter-Glo using XLfit 4.0 as previously described (see Langenhan, J. M.; Peters, N. R.; Guzei, I. A.; Hoffmann, F. M.; Thorson, J. S. Proc. Natl. Acad. Sci. USA 2005, 102, 12305-12310, which is incorporated by reference herein). The IC50 determined using the best fit curve for dosage response from any of the 3 assays is reported as the final IC50. The best fit curve is defined as the curve with the lowest standard error.
# [2] = tested on: SF-268 human CNS adenocarcinoma cells; assay: cell proliferation assay, SF-268; details: Table 3 summary of most active compounds, IC50, read-out: SF268 Giloblast
# Description: as §1, §2, §3
# as §4, with “IC50.” for “IC50. The best fit curve is defined as the curve with the lowest standard error.”
# [3] = tested on: A549 human lung adenocarcinoma cells; assay: cell proliferation assay, A549; details: Table 3 summary of most active compounds, read-out: A549 Lung (+p53)
# Description: as §1, §2, §3, §4
# [4] = tested on: MCF7 human breast adenocarcinoma cells; assay: cell proliferation assay, MCF7; details: Table 3 summary of most active compounds
# Description: as §1, §2, §3
# as §4, with “IC50.” for “IC50. The best fit curve is defined as the curve with the lowest standard error.”
# NCI/ADR-RES = assay: cell proliferation assay, NCI/ADR-RES; details: Table 3 summary of most active compounds
# Description: as §2, §3
# as §4, with “IC50.” for “IC50. The best fit curve is defined as the curve with the lowest standard error.”
# [5] = tested on: SKOV-3 human ovarian adenocarcinoma cells; assay: cell proliferation assay, SKOV-3; details: Table 3 summary of most active compounds, read-out: SKOV3 Ovarian
# Description: as §1, §2, §3, §4
# [6] = tested on: H1299 human lung adenocarcinoma (p53 null) cells; assay: cell proliferation assay, H1299; details: Table 3 summary of most active compounds
# Description: as §1, §2, §3
# as §4, with “IC50.” for “IC50. The best fit curve is defined as the curve with the lowest standard error.”
# [7] = tested on: NCI-H460 human lung adenocarcinoma cells; assay: cell proliferation assay, NCI-H460; details: Table 3 summary of most active compounds
# Description: as §1, §2, §3, §4
# [8] = tested on: HT-29 human colorectal adenocarcinoma cells; assay: cell proliferation assay, HT-29; details: Table 3 summary of most active compounds, IC50, read-out: H729 Colorectal
# Description: as §1, §2, §3, §4
compound,measurement,setting,value
CON(C(C)CC(c1ccccc1)c1c(O)c2ccccc2oc1=O)C1OC(C)C(O)C(O)C1O (mixture of isomers) [WARF Analog 12],IC50,[1]; listed as L-fucose,9 µM
same,IC50,[2]; listed as L-fucose,89 µM
same,IC50,[3],> 100 µM
same,IC50,[4],> 100 µM
same,IC50,NCI/ADR-RES,> 100 µM
same,IC50,[5]; listed as L-fucose,81 µM
same,IC50,[6],> 100 µM
same,IC50,[7],> 100 µM
same,IC50,[8]; listed as L-fucose,80 µM
CON(C(C)CC(c1ccccc1)c1c(O)c2ccccc2oc1=O)C1CC(O)C(O)CO1 (mixture of isomers) [WARF Analog 11],IC50,[1],13 µM
same,IC50,[2],> 100 µM
same,IC50,[3],> 100 µM
same,IC50,[4],78 µM
same,IC50,NCI/ADR-RES,> 100 µM
same,IC50,[5],> 100 µM
same,IC50,[6],92 µM
same,IC50,[7],> 100 µM
same,IC50,[8],> 100 µM
CON(C(C)CC(c1ccccc1)c1c(O)c2ccccc2oc1=O)C1OCC(O)C(O)C1O (mixture of isomers) [WARF Analog 23],IC50,[1]; listed as L-lyxose,14 µM
same,IC50,[2]; listed as L-lyxose,> 100 µM
same,IC50,[3]; listed as L-lyxose,95 µM
same,IC50,[4]; listed as L-lyxose,18 µM
same,IC50,NCI/ADR-RES; listed as L-lyxose,56 µM
same,IC50,[5]; listed as L-lyxose,60 µM
same,IC50,[6]; listed as L-lyxose,30 µM
same,IC50,[7]; listed as L-lyxose,> 100 µM
same,IC50,[8]; listed as L-lyxose,47 µM
